Source: PubChem BioAssay (NCI)
“And” between values parts separate entries of the source, which are not always exact repeats. Identical values can stand only once.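 These data come from cells grown in 96-well plates and exposed to compound for 48 hours at five concentrations. GI50 marks 50% less growth. Definition used: TGI = concentration required for complete inhibition of growth.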 Peptide text beside a SMILES is read from it. * marks the point of attachment. Cbz = O=C(OCc1ccccc1)*

Experiments:
Experiment in all cases: growth of human tumour cells (NCI), 48 h
SN12C renal = tested on: SN12C renal
SR leukemia = tested on: SR leukemia
K-562 leukemia = tested on: K-562 leukemia
NCI-H23 lung = tested on: NCI-H23 lung
HT29 colon = tested on: HT29 colon
RPMI-8226 leukemia = tested on: RPMI-8226 leukemia
OVCAR-3 ovarian = tested on: OVCAR-3 ovarian
MDA-MB-435 = tested on: MDA-MB-435
TK-10 renal = tested on: TK-10 renal
UO-31 renal = tested on: UO-31 renal
DU-145 prostate = tested on: DU-145 prostate
A498 renal = tested on: A498 renal
ACHN renal = tested on: ACHN renal
LOX IMVI melanoma = tested on: LOX IMVI melanoma
HCC-2998 colon = tested on: HCC-2998 colon
MALME-3M melanoma = tested on: MALME-3M melanoma

| Structure (SMILES) | TGI (SN12C renal) | TGI (SR leukemia) | TGI (K-562 leukemia) [µM] | TGI (NCI-H23 lung) | TGI (HT29 colon) [µM] | TGI (RPMI-8226 leukemia) [µM] | TGI (OVCAR-3 ovarian) | TGI (MDA-MB-435) | TGI (TK-10 renal) | TGI (UO-31 renal) | TGI (DU-145 prostate) | TGI (A498 renal) [µM] | TGI (ACHN renal) [µM] | TGI (LOX IMVI melanoma) | TGI (HCC-2998 colon) | TGI (MALME-3M melanoma) | GI50 (OVCAR-3 ovarian) |
| --- | --- | --- | --- | --- | --- | --- | --- | --- | --- | --- | --- | --- | --- | --- | --- | --- | --- |
| Cc1[nH]c2[nH]c(=S)nc(NC(N)=S)c2c1Cc1ccccc1 | > 100 µM | 36.2 µM | > 100 | > 100 µM | 52 | 55.3 | 77.4 µM | 36.6 µM | > 100 µM | > 100 µM | > 100 µM | > 100 | > 100 | 55.4 µM |  |  |  |
| CN1CCN(c2ccc3nc(-c4ccc5nc(CCCc6ccc(N(CCCl)CCCl)cc6)[nH]c5c4)[nH]c3c2)CC1 | > 100 µM | > 100 µM | > 100 | > 100 µM | > 100 | > 100 |  | > 100 µM | > 100 µM | > 100 µM | > 100 µM | > 100 | > 100 | > 100 µM | > 100 µM | > 100 µM |  |
| C=CCc1cccc(/C(O)=C/C(=O)/C=C/c2ccccc2Cl)c1O | > 100 µM | 16 µM | > 25.2 | 21.8 µM | 42.5 | 36.5 | 76.3 µM | > 100 µM | > 100 µM | 32.7 µM | > 100 µM | 45 | > 100 | 24.6 µM | > 100 µM |  |  |
| CCOC(=O)CCCOc1cc(-c2ccccc2F)nc2cc3c(cc12)OCO3 | > 100 µM | > 100 µM |  | > 100 µM | > 100 | > 100 | 55.7 µM | > 100 µM | > 100 µM |  | > 100 µM |  |  | > 100 µM | 32.1 µM | > 100 µM | 15 µM |
| C/C(=N\NC(N)=S)C(CN1CCCCC1)C(C1=C(O)c2ccccc2OC1)c1ccccc1 (stereo not given) | > 100 µM | > 100 µM |  | > 100 µM | > 100 | 73.6 | > 100 µM | > 100 µM | > 100 µM | > 100 µM | > 100 µM | > 100 | > 100 | > 100 µM | > 100 µM | > 100 µM |  |
| Oc1cc(F)cc2cccnc12 | > 94.3 µM | 2.86 µM | 1.15 | 18.2 µM | > 36.7 | 1.17 |  | > 100 µM | > 100 µM | > 100 µM | > 100 µM | > 68.1 | > 92.1 | 29.1 µM | > 100 µM | > 100 µM |  |
| CCOC(=O)c1nc2ccc(C(F)(F)F)cc2nc1NCc1ccc(F)cc1 | > 100 µM | > 100 µM | > 100 | > 100 µM | > 100 | > 100 | > 100 µM | > 100 µM | > 100 µM | > 100 µM | > 100 µM |  | > 100 | > 100 µM | 78.3 µM | > 100 µM |  |
| CC(=O)OC1OC(C2c3cccc(O)c3C(=O)c3c(O)cc(CO)cc32)C(O)C(O)C1O (stereo not given) | 24.3 µM and 17.9 µM | > 100 µM and 33.1 µM | > 100 | 11.3 µM and 13 µM | > 100 |  | 22.4 µM and 12.1 µM | 11.6 µM and 14.3 µM | 19.4 µM and 22.4 µM | 22.5 µM and 21.3 µM | > 100 µM and 84.1 µM | 26.4 |  | 9.75 µM and 9.49 µM | 5.81 µM and 6.58 µM | 19.5 µM and 25.3 µM | 9.16 µM and 3.51 µM |
| CCOC(=O)COc1cc(-c2ccccc2)nc2cc(F)ccc12 | > 100 µM | > 100 µM | > 100 | > 100 µM | > 100 | > 100 | > 100 µM | > 100 µM | > 100 µM |  | > 100 µM | > 100 |  | > 100 µM | > 100 µM | > 100 µM |  |
| CCC12CN(C(=O)OC)C3C(Br)C1CCC(=O)C32 (stereo not given) |  | > 100 µM | > 100 | > 100 µM | > 100 | > 100 | > 100 µM | > 100 µM | > 100 µM | > 100 µM | > 100 µM | > 100 | > 100 | > 100 µM | > 100 µM | > 100 µM |  |
| CC(=S)NC=C(C(N)=O)C(N)=O | > 100 µM | > 100 µM | > 100 | > 100 µM | > 100 | > 100 | > 100 µM | > 100 µM |  |  | > 100 µM | > 100 | > 100 | > 100 µM | > 100 µM | > 100 µM |  |
| CCC1=NC(N/N=C/c2ccco2)=N/C1=C\c1ccco1 | > 100 µM | > 100 µM | > 100 | > 100 µM | > 100 | > 100 |  | > 100 µM | > 100 µM | > 100 µM | > 100 µM | > 100 | > 100 | > 100 µM | > 100 µM | > 100 µM |  |
| CCOC1Oc2ccccc2-c2nc(N)ncc21 (stereo not given) | > 100 µM | 61.2 µM |  | > 100 µM | > 100 | > 100 | > 100 µM | 66.3 µM | > 100 µM | > 100 µM | > 100 µM | 81.3 | > 100 | > 100 µM |  |  |  |
| O=C(O)c1ccc(C2=Nc3cccc4cccc(c34)N2)cc1 | > 100 µM | > 100 µM | > 100 | > 100 µM | > 100 | > 100 | > 100 µM | > 100 µM | > 100 µM | > 100 µM | > 100 µM |  | > 100 | > 100 µM | > 100 µM | > 100 µM |  |
| CCOC(=O)CCC(NC(=O)CNC(=O)CNC(=O)C(CCC(=O)OCC)NC(=O)C(CCC(=O)OCC)NC(=O)C(CCC(=O)OCC)NC(=O)OCc1ccccc1)C(=O)NC(CCC(=O)OCC)C(=O)NC(CCC(=O)OCC)C(=O)OCC (stereo not given) (Cbz-E(OEt)E(OEt)E(OEt)GGE(OEt)E(OEt)E(OEt)-OEt; configuration not given here) | > 75 µM | > 75 µM |  | > 75 µM | > 75 | > 75 |  | > 75 µM | > 75 µM | > 75 µM | > 75 µM |  | > 75 | > 75 µM |  | > 75 µM |  |
